Laboratory results published in patent publication US7691858B2, “Kinase inhibitors and methods of use thereof” (TargeGen, Inc., priority 2006, dated 2010).
“Also recorded” adds a separate entry of the source.

Assays:
IR = target: T1, IR (Homo sapiens, UniProt P06213); test: Kinase panel screen; type: biochemical; details: Compound I and ATP 10 μM
T1 construct: purchased Upstate USA or Invitrogen (commercial screening service)

MAPK1 = target: T2, MAPK1 (Homo sapiens, UniProt P27361); test: Kinase panel screen; type: biochemical; details: Compound I and ATP 10 μM
T2 construct: purchased Upstate USA or Invitrogen (commercial screening service)

CK2 = target: T3, CK2 (Homo sapiens, UniProt P68400); test: Kinase panel screen; type: biochemical; details: Compound I at 1 μM and ATP at the apparent Km
T3 construct: purchased Upstate USA or Invitrogen (contract screening service)

MST2 = target: T4, MST2 (Homo sapiens, UniProt Q13188); test: Kinase panel screen; type: biochemical; details: Compound I and ATP 10 μM
T4 construct: purchased Upstate USA or Invitrogen (commercial screening service)

MSK1 = target: T5, MSK1 (Homo sapiens, UniProt O75582); test: Kinase panel screen; type: biochemical; details: Compound I and ATP 10 μM
T5 construct: purchased Upstate USA or Invitrogen (contract screening service)

MEK2 = target: T6, MEK2 (Homo sapiens, UniProt P36507); test: Kinase panel screen; type: biochemical; details: Compound I at 1 μM and ATP at the apparent Km
T6 construct: purchased Upstate USA or Invitrogen (commercial screening service)

PAR-1Ba = target: T7, PAR-1Ba (Homo sapiens, UniProt Q7KZI7); test: Kinase panel screen; type: biochemical; details: Compound I and ATP 10 μM
T7 construct: purchased Upstate USA or Invitrogen (commercial screening service)

Syk = target: T8, Syk (Homo sapiens, UniProt P43405); test: Kinase panel screen; type: biochemical; details: Compound I and ATP 10 μM
T8 construct: purchased Upstate USA or Invitrogen (contract screening service)

Flt1 = target: T9, Flt1 (Homo sapiens, UniProt P17948); test: Kinase panel screen; type: biochemical; details: Compound I and ATP 10 μM
T9 construct: purchased Upstate USA or Invitrogen (commercial screening service)

CHK1 = CHK1 (Homo sapiens, UniProt O14757); test: Kinase panel screen; type: biochemical; details: Compound I and ATP 10 μM
Fyn = target: T10, Fyn (Homo sapiens, UniProt P06241); test: Kinase panel screen; type: biochemical; details: Compound I and ATP 10 μM
T10 construct: purchased Upstate USA or Invitrogen (commercial screening service)

cRaf = target: T11, cRaf (Homo sapiens, UniProt P04049); test: Kinase panel screen; type: biochemical; details: Compound I at 1 μM and ATP at the apparent Km
T11 construct: purchased Upstate USA or Invitrogen (commercial screening service)

FGFR2 = target: T12, FGFR2 (Homo sapiens, UniProt P21802); test: Kinase panel screen; type: biochemical; details: Compound I and ATP 10 μM
T12 construct: purchased Upstate USA or Invitrogen (contract screening service)

VEGF-induced edema = test: Miles assay, VEGF as agonist; type: in vivo, Sprague-Dawley rats
Protocol: A rodent model of vascular edema, the Miles assay, was used to screen compounds for their ability to inhibit VEGF-induced edema. […] Sprague-Dawley rats were first injected IV with vehicle alone or test agent, followed by IV injection of Evans blue dye, followed by intradermal injections of saline and VEGF (200 ng/injection site) along both shaved flanks.

MAPK2 = target: T13, MAPK2 (Homo sapiens, UniProt P28482); test: Kinase panel screen; type: biochemical; details: Compound I and ATP 10 μM
T13 construct: purchased Upstate USA or Invitrogen (commercial screening service)

NEK2 = target: T14, NEK2 (Homo sapiens, UniProt P51955); test: Kinase panel screen; type: biochemical; details: Compound I and ATP 10 μM
T14 construct: purchased Upstate USA or Invitrogen (commercial screening service)

FGFR1 = target: T15, FGFR1 (Homo sapiens, UniProt P11362); test: Kinase panel screen; type: biochemical; details: Compound I and ATP 10 μM
T15 construct: purchased Upstate USA or Invitrogen (contract screening service)

Akt phosphorylation = test: VEGF-induced Akt phosphorylation in vivo (lung lysates, Western blot); set-up: species or system Sprague Dawley rats; details: 0.5 and 5 mg/kg iv, VEGF 30, 60 or 120 min later
Protocol: FIG. 5. Inhibition of VEGF-induced Akt phosphorylation in vivo. […] Lungs were explanted 5 min after VEGF or saline injection, processed to tissue lysates, and lysates probed in Western blots to detect either phosphorylated Akt or total Akt (as a loading control).
The ability of compounds to impact PI3K activity in vivo was assessed by examining compound influence on vascular endothelial growth factor (VEGF)-induced Akt kinase phosphorylation (VEGF stimulation being an inducer of PI3K activity, and Akt kinase being a direct target of PI3K). Sprague Dawley rats were first injected intravenously (iv) with either vehicle or test compound at 5 mg/kg, and then 30, 60 or 120 min later injected iv with VEGF. Five minutes later, lungs were harvested and used to generate tissue lysates, which were then probed for phosphorylated Akt using Western blot technology; non-phosphorylated Akt was also probed in the same blots as a loading control. In other studies, test compounds was dosed at either 0.5 or 5 mg/kg, and VEGF delivered 60 min later, in order to assess the dose-response relationship of a compound's activities. […]

SAPK2b = target: T16, SAPK2b (Homo sapiens, UniProt Q15759); test: Kinase panel screen; type: biochemical; details: Compound I and ATP 10 μM
T16 construct: purchased Upstate USA or Invitrogen (commercial screening service)

CDK2 = target: T17, CDK2 (Homo sapiens, UniProt P24941); test: Kinase panel screen; type: biochemical; details: Compound I and ATP 10 μM
T17 construct: purchased Upstate USA or Invitrogen (commercial screening service)

PKB 3 = PKB 3 (Homo sapiens, UniProt P31751); test: Kinase panel screen; type: biochemical; details: read-out: Percent Control, PKB 3
Ron = target: T18, Ron (Homo sapiens, UniProt Q04912); test: Kinase panel screen; type: biochemical; details: Compound I and ATP 10 μM
T18 construct: purchased Upstate USA or Invitrogen (commercial screening service)

AMPK = test: Kinase panel screen; type: biochemical, rat; details: Compound I and ATP 10 μM
[1] = tested on: VE-cadherin phosphorylation; test: VEGF-induced VE-cadherin phosphorylation in EC (Western blot); type: cell-based; details: 10 uM Compound I, EC with VEGF
Protocol: FIG. 3. Inhibition of cell proliferation and signaling. (a) EC were cultured in the presence of vehicle (DMSO) or PI3K inhibitors (all at 10 μM); cell proliferation was assessed either 24 (open bar), 48 (grey bar), or 72 h (black bar) later.
Western blots: Cell cultures were rinsed twice with PBS and then lysed using RIPA buffer (100 mM Tris, 150 mM NaCl, 2 mM CaCl2, 1% deoxycholic acid, 1% Triton X-100, 0.1% SDS, pH 7.5) containing PMSF (2 mM), NaF (500 mM), aprotinin (10 μg/ml), leupeptin (10 μg/ml) and vanadate (1 mM). Tissue samples were placed in ice-cold RIPA buffer and processed to lysates using a FastPrep homogenizer (QBiogene, Carlsbad, Calif.). Lysates were centrifuged at 15,000×g followed by assay for total protein using the bicinchoninic acid method (Pierce Biotechnology, Rockford, Ill.), then loaded at equal protein concentration onto gels for SDS-PAGE electrophoresis and Western blotting. For phosphorylated VE-cadherin detection blots were probed with primary antibody (Santa Cruz Biotechnology, Santa Cruz, Calif.) followed by a chemiluminescent detection system (Pierce Biotechnology). The same techniques were used to detect both phosphorylated and total ERK and Akt, except that primary antibodies were supplied by Cell Signaling Technology (Beverly, Mass.) and BD Biosciences (San Jose, Calif.), respectively.

Ros = target: T19, Ros (Homo sapiens, UniProt P08922); test: Kinase panel screen; type: biochemical; details: Compound I and ATP 10 μM
T19 construct: purchased Upstate USA or Invitrogen (commercial screening service)

TBK1 = target: T20, TBK1 (Homo sapiens, UniProt Q9UHD2); test: Kinase panel screen; type: biochemical; details: Compound I and ATP 10 μM
T20 construct: purchased Upstate USA or Invitrogen (contract screening service)

T9 sequence (P17948 27-1338): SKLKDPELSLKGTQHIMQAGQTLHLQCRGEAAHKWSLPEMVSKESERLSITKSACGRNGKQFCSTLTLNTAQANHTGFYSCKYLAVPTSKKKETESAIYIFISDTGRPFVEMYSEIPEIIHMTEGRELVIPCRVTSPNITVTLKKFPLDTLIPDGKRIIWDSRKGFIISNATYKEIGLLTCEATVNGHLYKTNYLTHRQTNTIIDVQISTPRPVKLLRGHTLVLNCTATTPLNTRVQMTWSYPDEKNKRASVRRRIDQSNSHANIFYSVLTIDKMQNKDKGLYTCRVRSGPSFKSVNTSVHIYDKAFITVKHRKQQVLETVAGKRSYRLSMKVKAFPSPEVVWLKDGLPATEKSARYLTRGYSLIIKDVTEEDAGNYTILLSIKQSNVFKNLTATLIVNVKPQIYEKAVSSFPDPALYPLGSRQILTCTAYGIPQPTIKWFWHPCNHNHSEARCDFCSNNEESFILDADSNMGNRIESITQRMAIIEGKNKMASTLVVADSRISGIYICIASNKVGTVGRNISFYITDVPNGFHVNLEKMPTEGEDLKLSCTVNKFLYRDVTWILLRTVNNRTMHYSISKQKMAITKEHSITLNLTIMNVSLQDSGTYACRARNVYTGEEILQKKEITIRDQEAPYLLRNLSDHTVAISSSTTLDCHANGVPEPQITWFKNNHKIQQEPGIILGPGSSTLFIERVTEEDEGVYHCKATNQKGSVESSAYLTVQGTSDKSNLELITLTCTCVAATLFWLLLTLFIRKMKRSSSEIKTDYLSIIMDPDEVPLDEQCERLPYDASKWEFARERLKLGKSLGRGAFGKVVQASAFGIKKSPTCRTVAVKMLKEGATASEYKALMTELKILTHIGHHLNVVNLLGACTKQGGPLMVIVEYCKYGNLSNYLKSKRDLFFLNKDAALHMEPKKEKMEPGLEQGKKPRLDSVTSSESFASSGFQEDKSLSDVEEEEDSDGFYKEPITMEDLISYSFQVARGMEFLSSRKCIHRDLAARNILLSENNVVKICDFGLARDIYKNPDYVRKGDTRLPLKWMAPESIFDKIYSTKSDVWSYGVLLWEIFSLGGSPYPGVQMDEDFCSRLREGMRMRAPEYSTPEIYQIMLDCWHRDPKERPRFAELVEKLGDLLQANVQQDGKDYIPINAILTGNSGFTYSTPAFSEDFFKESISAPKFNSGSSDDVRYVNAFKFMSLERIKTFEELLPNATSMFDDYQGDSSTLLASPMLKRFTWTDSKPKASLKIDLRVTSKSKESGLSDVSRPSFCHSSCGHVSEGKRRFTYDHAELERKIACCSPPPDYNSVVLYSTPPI
T13 sequence (P28482 whole entry): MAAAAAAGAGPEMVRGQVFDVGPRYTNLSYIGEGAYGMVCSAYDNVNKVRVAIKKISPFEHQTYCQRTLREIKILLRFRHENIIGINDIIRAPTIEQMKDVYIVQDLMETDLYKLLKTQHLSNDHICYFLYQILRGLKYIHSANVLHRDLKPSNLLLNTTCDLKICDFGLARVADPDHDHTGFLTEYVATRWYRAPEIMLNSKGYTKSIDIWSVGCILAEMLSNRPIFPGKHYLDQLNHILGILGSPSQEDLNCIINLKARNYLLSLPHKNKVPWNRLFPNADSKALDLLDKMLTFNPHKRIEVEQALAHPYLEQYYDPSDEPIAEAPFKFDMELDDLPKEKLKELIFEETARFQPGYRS
T19 sequence (P08922 28-2347): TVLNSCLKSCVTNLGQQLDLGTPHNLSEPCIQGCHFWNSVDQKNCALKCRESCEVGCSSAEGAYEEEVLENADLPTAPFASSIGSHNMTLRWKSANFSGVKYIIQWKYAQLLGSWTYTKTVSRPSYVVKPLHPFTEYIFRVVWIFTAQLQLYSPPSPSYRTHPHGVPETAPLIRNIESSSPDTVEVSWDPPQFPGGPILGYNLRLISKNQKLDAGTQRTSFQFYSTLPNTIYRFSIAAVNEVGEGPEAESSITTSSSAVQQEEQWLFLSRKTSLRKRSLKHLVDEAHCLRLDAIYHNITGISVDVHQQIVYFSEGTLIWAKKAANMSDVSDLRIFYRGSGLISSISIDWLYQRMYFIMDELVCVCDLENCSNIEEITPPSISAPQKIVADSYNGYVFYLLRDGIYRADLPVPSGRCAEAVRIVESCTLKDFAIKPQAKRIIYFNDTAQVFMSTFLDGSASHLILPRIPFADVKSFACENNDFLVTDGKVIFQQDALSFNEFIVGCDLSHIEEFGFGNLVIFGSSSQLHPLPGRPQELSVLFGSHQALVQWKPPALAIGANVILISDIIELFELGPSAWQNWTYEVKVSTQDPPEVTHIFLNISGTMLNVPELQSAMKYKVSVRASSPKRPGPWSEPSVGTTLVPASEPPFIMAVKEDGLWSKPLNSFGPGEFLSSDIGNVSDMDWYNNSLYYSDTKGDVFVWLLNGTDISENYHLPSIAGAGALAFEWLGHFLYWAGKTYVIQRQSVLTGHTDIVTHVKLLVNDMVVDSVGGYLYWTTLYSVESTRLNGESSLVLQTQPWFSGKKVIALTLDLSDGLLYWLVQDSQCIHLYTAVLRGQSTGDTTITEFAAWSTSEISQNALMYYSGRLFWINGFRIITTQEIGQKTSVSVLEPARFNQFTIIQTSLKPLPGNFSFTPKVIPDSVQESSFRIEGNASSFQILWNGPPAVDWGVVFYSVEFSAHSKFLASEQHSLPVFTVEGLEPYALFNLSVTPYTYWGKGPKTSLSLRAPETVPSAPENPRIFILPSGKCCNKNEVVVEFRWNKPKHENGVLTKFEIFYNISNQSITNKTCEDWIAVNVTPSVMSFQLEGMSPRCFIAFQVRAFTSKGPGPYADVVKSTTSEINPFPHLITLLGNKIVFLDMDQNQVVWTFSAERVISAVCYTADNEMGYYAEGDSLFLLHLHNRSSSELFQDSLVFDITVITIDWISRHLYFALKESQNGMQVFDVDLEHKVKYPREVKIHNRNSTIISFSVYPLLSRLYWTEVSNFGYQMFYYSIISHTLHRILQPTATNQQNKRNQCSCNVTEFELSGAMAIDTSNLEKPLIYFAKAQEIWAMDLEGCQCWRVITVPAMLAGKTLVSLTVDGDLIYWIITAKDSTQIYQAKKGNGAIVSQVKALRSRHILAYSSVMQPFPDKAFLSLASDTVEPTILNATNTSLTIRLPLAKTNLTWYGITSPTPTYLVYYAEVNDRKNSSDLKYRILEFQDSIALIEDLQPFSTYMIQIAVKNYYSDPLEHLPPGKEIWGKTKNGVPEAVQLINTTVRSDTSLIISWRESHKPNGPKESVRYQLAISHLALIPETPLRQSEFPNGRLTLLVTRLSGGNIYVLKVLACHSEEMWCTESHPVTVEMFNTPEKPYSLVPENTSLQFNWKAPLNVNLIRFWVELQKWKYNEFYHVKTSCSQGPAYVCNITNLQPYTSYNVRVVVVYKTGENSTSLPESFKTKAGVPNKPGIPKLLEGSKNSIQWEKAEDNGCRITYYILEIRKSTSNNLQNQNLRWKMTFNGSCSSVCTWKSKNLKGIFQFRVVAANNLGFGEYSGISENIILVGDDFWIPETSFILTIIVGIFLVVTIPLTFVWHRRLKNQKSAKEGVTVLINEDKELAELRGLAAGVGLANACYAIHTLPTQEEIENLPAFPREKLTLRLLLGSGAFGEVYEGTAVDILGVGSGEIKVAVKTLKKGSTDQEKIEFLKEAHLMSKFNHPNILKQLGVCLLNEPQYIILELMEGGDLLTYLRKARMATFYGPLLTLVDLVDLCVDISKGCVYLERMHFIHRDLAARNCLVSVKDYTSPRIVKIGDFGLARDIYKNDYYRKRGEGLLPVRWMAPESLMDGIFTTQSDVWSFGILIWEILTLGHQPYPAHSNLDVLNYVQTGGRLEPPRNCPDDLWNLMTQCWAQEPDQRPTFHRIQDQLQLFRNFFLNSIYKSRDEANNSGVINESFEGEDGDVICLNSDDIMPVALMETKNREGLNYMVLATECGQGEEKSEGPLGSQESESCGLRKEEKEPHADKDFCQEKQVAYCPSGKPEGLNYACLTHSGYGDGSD
T5 sequence (O75582 whole entry): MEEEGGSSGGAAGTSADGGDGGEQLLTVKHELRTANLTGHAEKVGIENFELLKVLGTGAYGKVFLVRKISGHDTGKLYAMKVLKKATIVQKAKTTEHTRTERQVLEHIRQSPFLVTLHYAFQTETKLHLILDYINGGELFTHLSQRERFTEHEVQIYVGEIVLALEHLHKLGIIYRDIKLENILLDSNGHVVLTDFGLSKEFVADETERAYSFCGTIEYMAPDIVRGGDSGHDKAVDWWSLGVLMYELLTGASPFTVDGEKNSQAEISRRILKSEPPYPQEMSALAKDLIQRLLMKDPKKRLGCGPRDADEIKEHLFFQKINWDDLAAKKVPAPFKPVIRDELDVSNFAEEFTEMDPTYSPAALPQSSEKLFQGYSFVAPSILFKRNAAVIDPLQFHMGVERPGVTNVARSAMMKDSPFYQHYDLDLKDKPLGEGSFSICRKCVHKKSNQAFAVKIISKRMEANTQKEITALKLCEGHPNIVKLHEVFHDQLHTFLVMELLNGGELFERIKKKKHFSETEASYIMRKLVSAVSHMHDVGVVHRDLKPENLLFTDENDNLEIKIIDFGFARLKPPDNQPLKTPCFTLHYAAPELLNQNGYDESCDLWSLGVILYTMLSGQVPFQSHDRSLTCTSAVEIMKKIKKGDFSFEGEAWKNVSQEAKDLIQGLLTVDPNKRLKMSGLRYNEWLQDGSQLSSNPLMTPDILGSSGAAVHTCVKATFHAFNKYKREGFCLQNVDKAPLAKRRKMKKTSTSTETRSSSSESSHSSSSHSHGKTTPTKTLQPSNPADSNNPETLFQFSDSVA

## Nc1nc(N)c2nc(-c3cccc(O)c3)c(-c3cccc(O)c3)nc2n1 [Compound I, 6,7-bis-(3-hydroxyphenyl)-pteridine-2,4-diamine]
IR
  Percent Control, IR: 81%
MAPK1
  Percent Control, MAPK1: 97%
CK2
  Percent Control, CK2*: 96%
MST2
  Percent Control, MST2: 91%
MSK1
  Percent Control, MSK1: 92%
MEK2
  Percent Control, MEK2*: 94%
PAR-1Ba
  Percent Control, PAR-1Ba: 93%
Syk
  Percent Control, Syk: 76%
Flt1
  Percent Control, Flt1: 62%
CHK1
  Percent Control, CHK1: 100%
Fyn
  Percent Control, Fyn: 54%
cRaf
  Percent Control, cRaf*: 98%
FGFR2
  Percent Control, FGFR2: 73%
VEGF-induced edema; Miles assay, varied time between compound and agonist challenge, data not shown
  time for which a single i.v. administration reduced edema formation: at least 4 hours
VEGF-induced edema; rats, Compound I pretreatment (1 mg/kg in FIG. 4)
  VEGF-induced vascular permeability / edema formation: inhibited; also recorded: reduced edema formation
MAPK2
  Percent Control, MAPK2: 84%
NEK2
  Percent Control, NEK2: 98%
FGFR1
  Percent Control, FGFR1: 75%
Akt phosphorylation
  VEGF-induced Akt phosphorylation in lung lysates: blocked
Akt phosphorylation; listed as 6,7-bis-(3-hydroxyphenyl)-pteridine-2,4-diamine
  VEGF-induced Akt phosphorylation in lung lysates: Inhibition
SAPK2b
  Percent Control, SAPK2b: 87%
CDK2
  Percent Control, CDK2 (first entry): 67%
PKB 3
  remaining activity at 10 µM: 103%
Ron
  Percent Control, Ron: 71%
AMPK
  Percent Control, AMPK (r): 88%
[1]
  VEGF signaling culminating in VE-cadherin phosphorylation: interrupt
Ros
  Percent Control, Ros: 90%
TBK1
  Percent Control, TBK1: 89%
